Common to all, as to format: cell-based
Assay [1] has as its target protein kinases (human kinome) (Homo sapiens, UniProt P45984). The conditions noted are these: MAPK9 P45984-1.
In assay [2] the target is protein kinases (human kinome) (Homo sapiens, UniProt P42684). The conditions noted are these: for logFC: ABL2 (P42684) protein abundance, degrader vs DMSO, down.
Assay [3] concerns the target T1, protein kinases (human kinome) (Homo sapiens, UniProt Q12851).
T1 sequence (Q12851 1-820): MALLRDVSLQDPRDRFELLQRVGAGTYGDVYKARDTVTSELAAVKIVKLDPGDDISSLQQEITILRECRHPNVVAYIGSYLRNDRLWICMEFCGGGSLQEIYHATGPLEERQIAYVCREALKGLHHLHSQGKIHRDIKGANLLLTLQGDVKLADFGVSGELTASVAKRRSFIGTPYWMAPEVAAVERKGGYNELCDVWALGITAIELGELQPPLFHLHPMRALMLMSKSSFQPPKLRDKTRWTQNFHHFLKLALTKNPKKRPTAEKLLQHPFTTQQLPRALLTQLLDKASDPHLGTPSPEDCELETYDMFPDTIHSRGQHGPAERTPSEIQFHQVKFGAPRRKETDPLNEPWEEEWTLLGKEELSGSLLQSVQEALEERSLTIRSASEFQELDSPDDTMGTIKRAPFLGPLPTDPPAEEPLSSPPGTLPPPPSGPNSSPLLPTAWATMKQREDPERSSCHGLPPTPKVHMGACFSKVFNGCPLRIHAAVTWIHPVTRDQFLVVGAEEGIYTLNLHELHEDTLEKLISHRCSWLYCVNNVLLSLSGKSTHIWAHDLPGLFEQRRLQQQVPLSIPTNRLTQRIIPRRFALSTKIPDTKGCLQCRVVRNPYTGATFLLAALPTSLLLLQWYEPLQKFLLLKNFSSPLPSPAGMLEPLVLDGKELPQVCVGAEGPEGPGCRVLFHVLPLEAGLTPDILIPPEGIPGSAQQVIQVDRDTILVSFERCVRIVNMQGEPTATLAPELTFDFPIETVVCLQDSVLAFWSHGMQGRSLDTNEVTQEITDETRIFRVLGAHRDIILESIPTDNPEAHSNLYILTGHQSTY
To be noted: for logFC MAP4K2 (Q12851): direction down; for logFC: MAP4K2 (Q12851).

For assay [4], the target named is protein kinases (human kinome) (Homo sapiens, UniProt Q16539). The conditions noted are these: for logFC MAPK14: MAPK14, accession Q16539, direction of change down.
Assay [5] deals with protein kinases (human kinome) (Homo sapiens, UniProt Q07912). To be noted: for logFC TNK2 (Q07912-1): direction down; for logFC TNK2: TNK2 (Q07912-1).
Assay [6] has as its target protein kinases (human kinome) (Homo sapiens, UniProt Q13233).
Assay [7] concerns the target protein kinases (human kinome) (Homo sapiens, UniProt P07947). The conditions noted are these: YES1 (P07947), experiment wp131.
[8] abbreviates: MAPK14 (Q16539) protein abundance, degrader vs DMSO, down.
[9] abbreviates: Accession Q13233, experiment wp076, direction down.
Where [10] appears, read: MAP3K1 (Q13233), experiment wp076.

Structures are written as SMILES. Several values for one entry are separate records, joined by “and”; a condition that tells them apart may be missing. Equal values may be shown once. Read-outs that look alike come from different tables or passages of the source.

Chain of protein kinases (human kinome) (Homo sapiens, UniProt Q16539) (Q16539 whole entry): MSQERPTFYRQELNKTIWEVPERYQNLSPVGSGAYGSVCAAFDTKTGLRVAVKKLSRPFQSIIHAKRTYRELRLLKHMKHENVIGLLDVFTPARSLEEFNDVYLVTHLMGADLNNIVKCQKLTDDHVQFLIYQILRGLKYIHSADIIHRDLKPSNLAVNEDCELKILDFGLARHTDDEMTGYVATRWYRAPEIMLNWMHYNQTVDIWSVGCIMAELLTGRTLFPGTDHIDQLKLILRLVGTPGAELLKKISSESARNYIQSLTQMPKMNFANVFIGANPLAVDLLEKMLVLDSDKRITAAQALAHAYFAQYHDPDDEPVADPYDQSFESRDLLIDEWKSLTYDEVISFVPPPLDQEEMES
Chain of protein kinases (human kinome) (Homo sapiens, UniProt Q13233) (Q13233 whole entry): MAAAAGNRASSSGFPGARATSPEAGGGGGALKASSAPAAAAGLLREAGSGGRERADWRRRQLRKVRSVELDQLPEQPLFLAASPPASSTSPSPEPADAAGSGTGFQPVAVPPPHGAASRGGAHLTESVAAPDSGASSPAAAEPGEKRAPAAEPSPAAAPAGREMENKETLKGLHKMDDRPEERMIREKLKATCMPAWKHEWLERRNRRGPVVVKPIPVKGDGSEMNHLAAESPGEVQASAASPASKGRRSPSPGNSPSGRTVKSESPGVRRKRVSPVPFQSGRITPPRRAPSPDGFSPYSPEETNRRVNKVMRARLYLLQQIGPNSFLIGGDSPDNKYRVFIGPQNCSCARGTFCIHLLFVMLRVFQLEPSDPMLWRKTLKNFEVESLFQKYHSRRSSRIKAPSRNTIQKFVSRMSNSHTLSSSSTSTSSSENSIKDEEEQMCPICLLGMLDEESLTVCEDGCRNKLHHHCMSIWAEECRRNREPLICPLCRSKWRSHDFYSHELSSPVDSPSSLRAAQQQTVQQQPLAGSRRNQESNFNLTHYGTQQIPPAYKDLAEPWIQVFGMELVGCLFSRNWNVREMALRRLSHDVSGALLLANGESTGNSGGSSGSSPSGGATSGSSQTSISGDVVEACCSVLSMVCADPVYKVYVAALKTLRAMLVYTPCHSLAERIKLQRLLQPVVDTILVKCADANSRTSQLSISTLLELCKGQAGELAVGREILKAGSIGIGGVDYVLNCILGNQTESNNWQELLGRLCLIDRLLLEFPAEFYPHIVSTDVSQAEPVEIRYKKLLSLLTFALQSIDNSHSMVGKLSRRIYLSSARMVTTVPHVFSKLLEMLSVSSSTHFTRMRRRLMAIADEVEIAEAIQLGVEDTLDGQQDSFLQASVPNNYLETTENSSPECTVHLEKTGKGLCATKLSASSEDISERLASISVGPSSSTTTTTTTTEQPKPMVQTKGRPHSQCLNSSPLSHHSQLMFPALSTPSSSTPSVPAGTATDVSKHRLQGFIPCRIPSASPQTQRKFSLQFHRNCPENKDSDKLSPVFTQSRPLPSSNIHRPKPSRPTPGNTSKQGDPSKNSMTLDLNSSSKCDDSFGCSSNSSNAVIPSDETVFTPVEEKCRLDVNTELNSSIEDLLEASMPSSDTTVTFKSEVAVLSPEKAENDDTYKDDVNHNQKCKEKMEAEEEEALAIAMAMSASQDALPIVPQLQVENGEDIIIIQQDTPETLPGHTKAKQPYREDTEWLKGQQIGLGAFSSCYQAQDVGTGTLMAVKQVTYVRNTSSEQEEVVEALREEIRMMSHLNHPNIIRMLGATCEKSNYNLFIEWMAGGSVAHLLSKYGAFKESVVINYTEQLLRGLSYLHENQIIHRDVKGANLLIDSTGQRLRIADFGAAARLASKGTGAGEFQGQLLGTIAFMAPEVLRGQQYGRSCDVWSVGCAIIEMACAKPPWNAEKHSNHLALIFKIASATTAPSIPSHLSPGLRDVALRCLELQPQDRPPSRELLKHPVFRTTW
Chain of protein kinases (human kinome) (Homo sapiens, UniProt Q07912) (Q07912 whole entry): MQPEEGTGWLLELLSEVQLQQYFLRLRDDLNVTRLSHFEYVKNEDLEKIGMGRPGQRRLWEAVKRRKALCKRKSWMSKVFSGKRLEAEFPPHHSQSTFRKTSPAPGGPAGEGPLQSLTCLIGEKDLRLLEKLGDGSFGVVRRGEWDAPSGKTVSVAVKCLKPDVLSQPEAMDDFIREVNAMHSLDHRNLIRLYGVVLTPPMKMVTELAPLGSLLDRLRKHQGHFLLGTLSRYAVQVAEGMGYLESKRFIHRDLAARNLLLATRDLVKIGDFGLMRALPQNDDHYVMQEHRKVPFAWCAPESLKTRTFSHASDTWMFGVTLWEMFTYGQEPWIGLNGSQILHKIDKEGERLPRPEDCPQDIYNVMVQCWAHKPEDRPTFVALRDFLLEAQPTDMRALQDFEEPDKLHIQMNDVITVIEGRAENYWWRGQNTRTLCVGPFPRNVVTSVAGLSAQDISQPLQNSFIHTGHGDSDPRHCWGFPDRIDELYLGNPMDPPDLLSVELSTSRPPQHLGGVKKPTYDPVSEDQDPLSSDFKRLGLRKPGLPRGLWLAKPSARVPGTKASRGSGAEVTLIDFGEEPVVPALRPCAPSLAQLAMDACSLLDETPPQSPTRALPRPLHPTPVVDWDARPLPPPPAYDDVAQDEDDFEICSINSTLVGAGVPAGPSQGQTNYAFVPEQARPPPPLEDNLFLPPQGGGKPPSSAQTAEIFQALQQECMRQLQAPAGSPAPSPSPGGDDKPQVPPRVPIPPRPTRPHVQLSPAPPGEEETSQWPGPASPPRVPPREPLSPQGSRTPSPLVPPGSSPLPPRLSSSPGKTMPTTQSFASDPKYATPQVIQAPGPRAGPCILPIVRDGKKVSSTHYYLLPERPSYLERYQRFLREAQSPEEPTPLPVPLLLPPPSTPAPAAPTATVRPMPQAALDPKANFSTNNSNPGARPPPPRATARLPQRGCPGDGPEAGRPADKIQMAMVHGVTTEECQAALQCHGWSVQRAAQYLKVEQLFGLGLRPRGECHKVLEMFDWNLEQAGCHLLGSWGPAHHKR
Chain of protein kinases (human kinome) (Homo sapiens, UniProt P45984) (P45984 whole entry): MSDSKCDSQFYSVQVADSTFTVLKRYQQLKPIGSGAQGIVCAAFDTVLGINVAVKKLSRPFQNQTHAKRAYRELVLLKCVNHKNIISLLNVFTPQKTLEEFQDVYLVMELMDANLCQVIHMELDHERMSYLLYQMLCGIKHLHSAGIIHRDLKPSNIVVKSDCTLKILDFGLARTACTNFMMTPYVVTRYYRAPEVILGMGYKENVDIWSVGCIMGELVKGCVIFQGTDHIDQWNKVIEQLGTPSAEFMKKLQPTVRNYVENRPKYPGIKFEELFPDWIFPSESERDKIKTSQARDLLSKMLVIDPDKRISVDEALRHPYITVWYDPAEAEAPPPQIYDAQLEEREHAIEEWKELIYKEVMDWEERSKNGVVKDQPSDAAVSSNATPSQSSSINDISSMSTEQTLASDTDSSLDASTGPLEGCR
Chain of protein kinases (human kinome) (Homo sapiens, UniProt P07947) (P07947 whole entry): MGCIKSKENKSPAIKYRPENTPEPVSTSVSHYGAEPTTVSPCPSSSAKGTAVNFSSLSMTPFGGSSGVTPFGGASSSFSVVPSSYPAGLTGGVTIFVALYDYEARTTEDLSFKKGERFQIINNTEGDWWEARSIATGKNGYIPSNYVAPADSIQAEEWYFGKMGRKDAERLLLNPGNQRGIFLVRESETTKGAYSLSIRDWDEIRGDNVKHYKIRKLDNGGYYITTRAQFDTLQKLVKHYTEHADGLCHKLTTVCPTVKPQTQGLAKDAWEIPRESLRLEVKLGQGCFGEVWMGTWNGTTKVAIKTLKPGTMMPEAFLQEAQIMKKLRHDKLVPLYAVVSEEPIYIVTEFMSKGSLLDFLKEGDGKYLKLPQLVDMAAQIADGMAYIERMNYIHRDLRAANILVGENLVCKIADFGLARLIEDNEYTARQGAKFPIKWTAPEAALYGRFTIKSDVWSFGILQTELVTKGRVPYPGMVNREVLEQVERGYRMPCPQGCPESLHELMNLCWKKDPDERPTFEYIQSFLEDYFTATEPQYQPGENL
Chain of protein kinases (human kinome) (Homo sapiens, UniProt P42684) (P42684 whole entry): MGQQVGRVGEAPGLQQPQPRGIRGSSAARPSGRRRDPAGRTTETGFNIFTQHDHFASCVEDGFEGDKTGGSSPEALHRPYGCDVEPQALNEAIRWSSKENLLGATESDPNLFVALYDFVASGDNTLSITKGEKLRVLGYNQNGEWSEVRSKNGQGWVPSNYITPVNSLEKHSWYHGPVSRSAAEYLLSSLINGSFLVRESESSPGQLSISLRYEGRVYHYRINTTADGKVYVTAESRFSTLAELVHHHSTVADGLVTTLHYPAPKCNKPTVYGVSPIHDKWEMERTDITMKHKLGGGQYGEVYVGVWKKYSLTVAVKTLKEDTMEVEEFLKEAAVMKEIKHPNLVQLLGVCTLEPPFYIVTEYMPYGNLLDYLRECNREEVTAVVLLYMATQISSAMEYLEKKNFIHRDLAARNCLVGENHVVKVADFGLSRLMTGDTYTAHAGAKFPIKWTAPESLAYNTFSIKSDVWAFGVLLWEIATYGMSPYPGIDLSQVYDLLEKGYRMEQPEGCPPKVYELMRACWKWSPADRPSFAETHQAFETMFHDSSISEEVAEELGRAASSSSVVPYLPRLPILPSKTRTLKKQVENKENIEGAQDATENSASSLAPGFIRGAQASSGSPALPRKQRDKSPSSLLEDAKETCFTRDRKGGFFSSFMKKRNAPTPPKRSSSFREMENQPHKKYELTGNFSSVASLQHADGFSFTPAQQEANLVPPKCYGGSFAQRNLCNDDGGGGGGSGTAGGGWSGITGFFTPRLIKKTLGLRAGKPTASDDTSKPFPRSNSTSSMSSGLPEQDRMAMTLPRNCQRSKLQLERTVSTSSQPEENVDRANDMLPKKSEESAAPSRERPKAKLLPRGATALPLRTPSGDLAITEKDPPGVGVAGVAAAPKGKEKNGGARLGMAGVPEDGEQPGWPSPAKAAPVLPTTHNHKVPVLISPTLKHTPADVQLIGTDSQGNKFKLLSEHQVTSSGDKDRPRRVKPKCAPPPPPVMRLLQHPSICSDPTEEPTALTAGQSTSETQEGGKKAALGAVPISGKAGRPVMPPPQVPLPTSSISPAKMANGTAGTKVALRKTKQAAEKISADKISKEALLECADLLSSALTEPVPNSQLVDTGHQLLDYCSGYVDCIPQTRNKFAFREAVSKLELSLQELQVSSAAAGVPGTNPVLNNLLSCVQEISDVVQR

For `CS(=O)(=O)Nc1cccc(-c2csc3cnc(Nc4ccc(N5CCN(CCCCCOc6cccc7c6C(=O)N(C6CCC(=O)NC6=O)C7=O)CC5)cc4)nc23)c1` (centres unmarked) [DB0614, N-(3-(2-((4-(4-(5-((2-(2,6-Dioxopiperidin-3-yl)-1,3-dioxoisoindolin-4-yl)oxy)pentyl)piperazin-1-yl)phenyl)amino)thieno[3,2-d]pyrimidin-7-yl)phenyl)methanesulfonamide], in assay [1] (experiment wp045), the logFC is listed as −0.5244 and the “logFC MAPK9” value is recorded as −0.5244. Also, in assay [1] (experiment wp117), the logFC is recorded as −0.564 and the “logFC MAPK9” value is listed as −0.564.
With `Cc1ccc(NC(=O)c2cccc(C(F)(F)F)c2)cc1N1Cc2cnc(Nc3ccc(N4CCN(CCCCCCOc5cccc6c5C(=O)N(C5CCC(=O)NC5=O)C6=O)CC4)nc3)nc2N(C)C1=O` (centres unmarked) [DB0663], the logFC is reported as −0.6022 in assay [2], −0.598 in assay [1] (experiment wp045), −0.3823 in assay [3] (experiment wp045) and −0.6293 in assay [4] (setting [8]). In addition, the “logFC ABL2 (P42684)” value in assay [2] (Experiment wp045) was −0.6022. Also, the “logFC MAPK9” value in assay [1] (experiment wp045) is −0.598. Also, the “logFC MAP4K2 (Q12851)” value in assay [3] (Experiment wp046) is given as −0.3823. In assay [4] (experiment wp045), the “logFC MAPK14” value was −0.6293.
As to `Cc1ccc(NC(=O)c2cccc(C(F)(F)F)c2)cc1N1Cc2cnc(Nc3ccc(N4CCN(CCCCC(=O)N[C@H](C(=O)N5C[C@H](O)C[C@H]5C(=O)N[C@@H](C)c5ccc(-c6scnc6C)cc5)C(C)(C)C)CC4)nc3)nc2N(C)C1=O` [DB1113], the logFC in assay [2] is on record as −1.723; in assay [1] (experiment wp168), −1.216; in assay [3] (experiment wp168) it was −2.432; in assay [4] (MAPK14 (Q16539), experiment wp168), −1.73. For the same compound, the “logFC ABL2 (P42684)” value in assay [2] (Experiment wp168) was −1.723. Moreover, the “logFC MAPK9” value in assay [1] (experiment wp168) is recorded as −1.216. Further, the “logFC MAP4K2 (Q12851)” value in assay [3] (Experiment wp168) was −2.432. For the same compound, the “logFC of MAPK14” value in assay [4] (Accession Q16539, experiment wp168) was −1.73. The “logFC TNK2 (Q07912-1)” value in assay [5] (Experiment wp168) is given as −0.5351. Also, the “logFC TNK2” value in assay [5] (experiment wp168) was −0.5351.
Turning to `Cc1ncsc1-c1ccc([C@H](C)NC(=O)[C@@H]2C[C@@H](O)CN2C(=O)[C@@H](NC(=O)CCOCCOCCN2CCN(c3ccc(Nc4ncc(Cl)c(Nc5ccccc5S(=O)(=O)C(C)C)n4)cc3)CC2)C(C)(C)C)cc1` [FMF.06.098.1], the “logFC MAP4K2 (Q12851)” value in assay [3] (Experiment wp108) is on record as −0.5507; in assay [3] (Experiment wp131) it was −0.6092. Further, the results for the logFC in assay [3] (experiment wp108) and in assay [3] (experiment wp131) were −0.5507 and −0.6092, respectively. The “logFC TNK2 (Q07912-1)” value in assay [5] (Experiment wp108) was −0.5108; in assay [5] (Experiment wp131), −0.5805. For the same compound, the “logFC TNK2” value was −0.5108 in assay [5] (experiment wp108) and −0.5805 in assay [5] (experiment wp131).
Turning to `CCc1cnn2c(N(Cc3ccc(N)nc3)C(=O)CCOCCOCCOCCNC(=O)CNc3cccc4c3C(=O)N(C3CCC(=O)NC3=O)C4=O)cc(N3CCCC[C@H]3CCO)nc12` (some centres unmarked) [MFH.5.115.2], the “logFC MAP3K1” value in assay [6] (setting [9]) and in assay [6] (setting [10]) was −0.3528 each time.
As to `O=C1CCC(N2C(=O)c3cccc(NCCCCCCCCN4CCC(NC(=O)c5[nH]ncc5NC(=O)c5c(Cl)cccc5Cl)CC4)c3C2=O)C(=O)N1` (centres unmarked) [MFH.5.126.1], the “logFC MAP3K1” value in assay [6] (setting [9]) and in assay [6] (setting [10]) was −0.5947 throughout.
With `Cn1c(=O)c(-c2c(Cl)cccc2Cl)cc2cnc(Nc3ccc(OCCNC(=O)CCCCCCNC(=O)COc4cccc5c4C(=O)N(C4CCC(=O)NC4=O)C5=O)cc3)nc21` (centres unmarked) [SB1.G.192.1], the logFC was −2.44 in assay [2]; −1.244 in assay [7]; −1.244 in assay [7] (direction down); −0.8915 and −0.7293 in assay [4] (setting [8]); −0.7463 in assay [4] (MAPK14 (Q16539), experiment wp131). The “logFC ABL2 (P42684)” value in assay [2] (experiment wp071) is reported as −2.44. Moreover, the “logFC MAPK14” value in assay [4] (experiment wp071) was −0.8915; in assay [4] (experiment wp081), −0.7293; in assay [4] (experiment wp131) it was −0.7463. Besides, the “logFC TNK2 (Q07912-1)” value in assay [5] (Experiment wp131) is −1.488. Moreover, in assay [5] (experiment wp131), the “logFC TNK2” value is −1.488.
Regarding `CC(C)S(=O)(=O)c1ccccc1Nc1nc(Nc2ccc(N3CCN(CCOCCNC(=O)CNc4ccc5c(c4)C(=O)N(C4CCC(=O)NC4=O)C5=O)CC3)cc2)ncc1Cl` (centres unmarked) [SK.3.93], the logFC in assay [2] was −0.5278. For the same compound, the “logFC ABL2 (P42684)” value in assay [2] (experiment wp016) is −0.5278.
As to `CC(C)S(=O)(=O)c1ccccc1Nc1nc(Nc2ccc(N3CCN(CCOCCOCCNC(=O)CNc4cccc5c4C(=O)N(C4CCC(=O)NC4=O)C5=O)CC3)cc2)ncc1Cl` (centres unmarked) [TL12.186], the results for the logFC in assay [2], in assay [7] and in assay [7] (direction down) were −0.803, −0.5437 and −0.5437, respectively. For the same compound, the “logFC ABL2 (P42684)” value in assay [2] (experiment wp137) is −0.803. The figures for the “logFC TNK2 (Q07912-1)” value in assay [5] (Experiment wp131) and in assay [5] (Experiment wp137) were −2.251 and −1.575, respectively. The entries for the “logFC TNK2” value in assay [5] (experiment wp131) and in assay [5] (experiment wp137) were −2.251 and −1.575, respectively.
In assay [2], `CC(C)S(=O)(=O)c1ccccc1Nc1nc(Nc2ccc(N3CCN(CCOCCOCCC(=O)NCCNc4cccc5c4CN(C4CCC(=O)NC4=O)C5=O)CC3)cc2)ncc1Cl` (centres unmarked) [TL13.97] gave a logFC of −0.5116. Also, the “logFC ABL2 (P42684)” value in assay [2] (experiment wp137) is listed as −0.5116. Further, the “logFC TNK2 (Q07912-1)” value in assay [5] (Experiment wp137) was −1.971. Besides, the “logFC TNK2” value in assay [5] (experiment wp137) is reported as −1.971.
As to `Cc1ccc(C(=O)Nc2ccc(CN3CCN(CCOCCOCCNC(=O)CNc4cccc5c4C(=O)N(C4CCC(=O)NC4=O)C5=O)CC3)c(C(F)(F)F)c2)cc1C#Cc1cnc2cccnn12` (centres unmarked) [TL13.150], the “logFC MAP4K2 (Q12851)” value in assay [3] (Experiment wp081) is −1.088. Besides, the figures for the logFC in assay [3] (experiment wp081) and in assay [4] (setting [8]) were −1.088 and −0.3738, respectively. The “logFC MAPK14” value in assay [4] (experiment wp081) is listed as −0.3738.
`NC(=O)c1c(F)cccc1Nc1nc(Nc2ccc(S(=O)(=O)NCCOCCOCCOCCOCCNc3cccc4c3C(=O)N(C3CCC(=O)NC3=O)C4=O)cc2)ncc1Br` (centres unmarked) [TMX.02.138]: in assay [1] (experiment wp146), the logFC is given as −1.518 and the “logFC MAPK9” value is reported as −1.518.
For `Cc1cc(Nc2ncc(Br)c(Nc3cccc(F)c3C(N)=O)n2)ccc1S(=O)(=O)NCCOCCOCCOCCOCCNc1cccc2c1C(=O)N(C1CCC(=O)NC1=O)C2=O` (centres unmarked) [TMX.02.174], in assay [1] (experiment wp146), the logFC is −1.031 and the “logFC MAPK9” value is on record as −1.031.
For the compound `Nc1ncc(-c2ccc(S(=O)(=O)N(CCCNC(=O)CCOCCOCCOCCOCCOCCNc3cccc4c3C(=O)N(C3CCC(=O)NC3=O)C4=O)C3CC3)cc2)cc1-c1ccc2c(c1)CCNC2=O` (centres unmarked) [WH.10417.099], the “logFC MAP3K1” value in assay [6] (Accession Q13233, experiment wp056, direction down) is given as −0.5034; in assay [6] (Accession Q13233, experiment wp107, direction down), −0.4673; in assay [6] (MAP3K1 (Q13233), experiment wp056), −0.5034; in assay [6] (MAP3K1 (Q13233), experiment wp107), −0.4673.
